The target in one data set is T1, truncated CK1δ (Homo sapiens, UniProt P48730).
T1 construct: recombinant human, GST-tagged, aa 1-294; GST; purchased Merck Millipore, Merck KGaA, Darmstadt, Germany
T1 sequence (P48730 1-294): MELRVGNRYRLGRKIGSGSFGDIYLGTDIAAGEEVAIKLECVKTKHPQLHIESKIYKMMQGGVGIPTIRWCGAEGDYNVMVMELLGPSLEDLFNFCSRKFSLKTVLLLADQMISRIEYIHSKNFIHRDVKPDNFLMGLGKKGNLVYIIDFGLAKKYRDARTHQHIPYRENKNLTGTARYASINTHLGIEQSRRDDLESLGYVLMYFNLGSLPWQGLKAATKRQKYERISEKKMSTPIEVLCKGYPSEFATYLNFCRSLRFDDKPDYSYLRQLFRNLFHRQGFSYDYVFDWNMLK
The experiment in a line: CK1δ luminescent kinase assay (Kinase-Glo). It is filed as biochemical. The conditions noted are these: for remaining activity at 10 µM / remaining activity at 40 µM: CK1δ residual activity; for remaining activity at 10 µM: compound at 10 μM, read-out: % Residual Activity at 10 μM ± sd; for remaining activity at 40 µM: compound at 40 μM, read-out: % Residual Activity at 40 μM ± sd; for IC50: truncated CK1δ, ATP 2 μM, read-out: IC50 (μM), CK1δ inhibition. How it is done: Luminescent assays were performed in white 96-well plates in a 40 μL final volume with buffer containing 50 mM HEPES (pH 7.5), 1 mM EDTA, 1 mM EGTA, and 15 mM MgCl2. In a typical assay, 10 μL of inhibitor solution (desired concentrations were obtained by diluting a starting 10 mM solution in DMSO) and 10 μL of enzyme solution were added to the well, followed by 20 μL of assay buffer containing casein substrate (Sigma-Aldrich, Merck KGaA, Darmstadt, Germany, casein solution from bovine milk, 5% in water) and ATP, at a final concentration of 0.05% and 2 μM, respectively. […] After 60 min of incubation at 30 °C, the enzymatic reactions were stopped with the addition of 40 μL of KinaseGlo reagent. […] Data were analyzed using Excel and GraphPad Prism software (version 8.0).
Background: Kinase-Glo measures the ATP left after a reaction by luminescence.

Data set [1] has as its target T2, human recombinant A2AAR (Homo sapiens, UniProt P29274).
T2 construct: expressed in transfected cells; host or cells: CHO cells (membranes)
The conditions noted are these: read-out: KiA2AAR; cited from earlier work.

A further data set has as its system CK1δ/ε. The conditions noted are these: read-out: IC50 as CK1δ/ε inhibitor; cited from earlier work.
In data set [2] the target is T2, human recombinant A2AAR. In words: [3H]NECA displacement binding in CHO cell membranes. The conditions noted are these: mean ± standard error, read-out: KiA2A. On the procedure:
(§1) Compounds 5, 6, 8–12, 15–21, and 23–25 were evaluated in binding studies at human recombinant A1, A2A, and A3 ARs, stably transfected in Chinese hamster ovary (CHO) cells. [^3H]CCPA (2-chloro-N^6-cyclopentylAdo), [^3H]NECA (5’-N-ethylcarboxamidoAdo), and [^3H]HEMADO (2-hexynyl-N^6-methylAdo) were used as the, respective, radioligands. All compounds were also tested at the A2BARs by inhibition of NECA-stimulated adenylyl cyclase activity, using the GloSensor cAMP assay, but none of them were active at a concentration up to 30 μM [35]. The results, together with the data of the reference adenine derivative 1, are reported in Table 2 as Ki values in μM (± standard errors). In the table, the IC50 values (μM) of the CK1δ inhibitory activity are also indicated. […] We called the compounds endowed with receptor antagonist behavior combined with an enzyme inhibitory activity “dual anta-inhibitors”.
(§2) All of the pharmacological methods followed the procedures as described earlier. In brief, the membranes for radioligand binding were prepared from CHO cells stably transfected with human adenosine receptor subtypes through two centrifugations at different speeds. The first low-speed […] centrifugation allowed for the removal of cell fragments and nuclei, while the second, performed at high speed (100,000× g), allowed for the precipitation of the crude membrane fractions. The resulting membrane pellet was resuspended in the buffer used for the respective binding experiments, frozen in liquid nitrogen, and stored in aliquots at −80 °C.
(§3) The binding affinity of the novel compounds was evaluated using radioligand competition experiments in CHO cells stably expressing hA1AR, hA2AAR, hA3AR subtypes, as early described. Results were expressed as Ki values (dissociation constants), which were calculated with the program GraphPad (GraphPad Software, San Diego, CA, USA). Each concentration was tested three–five times in duplicate and the values given as the mean ± standard error (S.E.). The potency of compounds at the hA2BAR (expressed on CHO cells) was determined through a GloSensor cAMP Assay.

A further data set addresses T3, human recombinant A1AR (Homo sapiens, UniProt P30542).
T3 construct: expressed in transfected cells; host or cells: CHO cells (membranes)
T3 sequence (P30542 1-326): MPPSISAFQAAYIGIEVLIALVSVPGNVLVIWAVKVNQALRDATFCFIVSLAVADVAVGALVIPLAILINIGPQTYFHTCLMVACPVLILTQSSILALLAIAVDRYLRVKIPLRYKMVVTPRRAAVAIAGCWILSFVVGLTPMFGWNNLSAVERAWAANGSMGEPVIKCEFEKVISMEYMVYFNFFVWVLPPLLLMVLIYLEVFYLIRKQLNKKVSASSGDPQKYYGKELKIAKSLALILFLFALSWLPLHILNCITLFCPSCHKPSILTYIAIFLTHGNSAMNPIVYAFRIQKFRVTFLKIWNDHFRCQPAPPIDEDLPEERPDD
In words: [3H]CCPA displacement binding in CHO cell membranes. The conditions noted are these: mean ± standard error, read-out: KiA1. How it is done: as §1, §2, §3

Another data set concerns the target T4, human recombinant A3AR (Homo sapiens, UniProt P0DMS8).
T4 construct: expressed in transfected cells; host or cells: CHO cells (membranes)
T4 sequence (P0DMS8 1-318): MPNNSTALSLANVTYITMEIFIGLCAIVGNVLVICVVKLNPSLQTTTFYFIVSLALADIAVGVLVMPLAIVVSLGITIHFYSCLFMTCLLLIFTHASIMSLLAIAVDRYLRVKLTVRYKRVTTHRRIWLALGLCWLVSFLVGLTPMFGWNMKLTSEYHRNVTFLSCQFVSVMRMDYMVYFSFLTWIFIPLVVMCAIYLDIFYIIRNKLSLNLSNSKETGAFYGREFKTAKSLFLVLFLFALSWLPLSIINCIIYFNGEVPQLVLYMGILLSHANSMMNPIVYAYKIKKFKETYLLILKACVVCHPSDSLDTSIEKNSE
The experiment in a line: [3H]HEMADO displacement binding in CHO cell membranes. The conditions noted are these: mean ± standard error, read-out: KiA3. On the procedure:
as §1, §2, §3

Another data set concerns the target T5, hA2AAR (Homo sapiens, UniProt P29274).
T5 construct: expressed in transfected cells; host or cells: CHO cells stably expressing hA2AAR and pGloSensor-22F
The experiment in a line: Antagonism of NECA-induced cAMP accumulation in CHO cells, GloSensor cAMP assay. It is filed as cell-based. To be noted: CHO cells stably expressing hA2AAR; read-out: IC50, inhibition of NECA effect on cAMP production. On the procedure:
In order to confirm the antagonist activity of the dual anta-inhibitors 12 and 17, they were evaluated in a functional assay in CHO cells stably expressing the hA2AAR. Firstly, they were tested alone, and […] in terms of cAMP stimulation was observed. […] Both 12 and 17 were able to inhibit the effect of NECA on cAMP production, thus resulting in A2AAR antagonists.
Functional activity was determined as described earlier. Briefly, cells stably expressing both the hA2A or hA2B AR and the plasmid pGloSensor-22F coding for the biosensor were cultured. This biosensor encodes for a genetically modified form of firefly luciferase into which a cAMP-binding protein moiety was inserted. The desiderate cell number was harvested and incubated for 2 h at r.t., with 3% v/v GloSensor cAMP reagent stock solution, 10% FBS, and 87% CO2 independent medium. Cells were dispensed in the wells of a 384-well plate and the reference agonist NECA or the under-study compounds were added at different concentrations. Since the compounds were unable to stimulate cAMP production, they were studied as antagonists. The antagonist profile was evaluated by assessing the ability to counteract an NECA-induced increase in cAMP accumulation. Responses were expressed as a percentage of the maximal relative luminescence units (RLU). Concentration–response curves were fitted by a nonlinear regression using Prism software. […]
For orientation: Cyclic AMP is a second messenger, typically raised through Gs and lowered through Gi signalling.

In another data set the test system is CK1δ. To be noted: cited from earlier work.
A further data set deals with CK1ε. The conditions noted are these: cited from earlier work.
Another data set has as its system CDK5. Also on record: method as in PMID 18698753, PMID 29289448. To be noted: cited from earlier work.

Like-named read-outs stand apart in the source and are kept apart here. Some results are limits rather than exact numbers.

T2 sequence (P29274 whole entry): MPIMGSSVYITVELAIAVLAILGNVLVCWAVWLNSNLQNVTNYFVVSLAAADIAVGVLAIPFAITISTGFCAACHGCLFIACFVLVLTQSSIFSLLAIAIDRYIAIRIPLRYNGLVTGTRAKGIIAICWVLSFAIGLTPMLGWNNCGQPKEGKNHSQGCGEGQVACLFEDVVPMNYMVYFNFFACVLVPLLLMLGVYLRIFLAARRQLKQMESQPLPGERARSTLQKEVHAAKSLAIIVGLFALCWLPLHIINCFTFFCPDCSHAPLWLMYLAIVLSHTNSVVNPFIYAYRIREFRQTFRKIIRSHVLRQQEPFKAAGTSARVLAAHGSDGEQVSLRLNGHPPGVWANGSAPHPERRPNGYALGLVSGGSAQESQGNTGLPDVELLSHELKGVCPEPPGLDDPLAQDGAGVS
T5 sequence (P29274 whole entry): as above

Regarding `CCn1cnc2c(N)nc(Cl)nc21` [Compound 3], on truncated CK1δ, the remaining activity at 10 µM was 71%, the remaining activity at 40 µM worked out at 41% and the IC50 was more than 10 µM. Also, the Ki at human recombinant A2AAR [1] is 3000 nM.
Take `Fc1cccc(-n2cnc3c(NCc4nc5ccc(Cl)cc5[nH]4)nc(N4CCNCC4)nc32)c1` [SR-2890]: the IC50 in the data set on CK1δ/ε was 4 nM.
As for `CN(C)c1nc(NCc2nc3ccccc3[nH]2)c2ncn(C3CCCC3)c2n1` [Compound 17, N^6-((1H-benzo[d]imidazol-2-yl)methyl)-9-cyclopentyl-N^2,N^2-dimethyl-9H-purine-2,6-diamine], the Ki on human recombinant A2AAR [2] turned out to be 76 ± 17 nM; at human recombinant A1AR, 2900 ± 648 nM; at human recombinant A3AR, 1150 ± 107 nM. In addition, the remaining activity at 10 µM on truncated CK1δ came to 34 ± 5%. Moreover, the remaining activity at 40 µM on truncated CK1δ was 22 ± 1%. Moreover, the IC50 at truncated CK1δ came to 0.59 ± 0.2 µM; at hA2AAR it was 69 ± 18 nM.
For `c1ccc2[nH]c(CNc3nc(N4CCOCC4)nc4c3ncn4-c3ccsc3)nc2c1` [SR-653234], the IC50 is 160 nM with CK1δ and 540 nM in the data set on CK1ε.
On to `CN(C)c1nc(N)c2ncn(C3CCCC3)c2n1` [Compound 12, 9-Cyclopentyl-N^2,N^2-dimethyl-9H-purine-2,6-diamine], for which the Ki on human recombinant A2AAR [2] worked out at 123 ± 2 nM; on human recombinant A1AR, 3340 ± 658 nM; at human recombinant A3AR it was 2880 ± 695 nM. Besides, the remaining activity at 10 µM on truncated CK1δ amounted to 27 ± 4%. For the same molecule, the remaining activity at 40 µM at truncated CK1δ was 19 ± 9.4%. The figures for the IC50 on truncated CK1δ and at hA2AAR were 1.75 ± 0.2 µM and 418 ± 98 nM, respectively.
For `CC[C@H](CO)Nc1nc(Nc2ccc(-c3cccnc3)cc2)c2ncn(C(C)C)c2n1` [(R)-DRF053], the IC50 in the data set with CDK5 is 80 nM; in the data set on CK1δ/ε it was 14 nM.
As usually defined, the melting point is the temperature of the solid-liquid transition. In the case of `Nc1nc(Cl)nc2c1nc(-c1ccco1)n2C1CCCC1` [Compound 8, 2-chloro-9-cyclopentyl-8-(furan-2-yl)-9H-purin-6-amine], the melting point was in the range of 152 to 153 °C. Moreover, the Ki at human recombinant A2AAR [2] was found to be 7 nM. Further, at human recombinant A1AR, the Ki stood at 118 ± 10 nM. Also, the Ki on human recombinant A3AR stood at 140 ± 35 nM. In addition, on truncated CK1δ, the remaining activity at 40 µM came to 86 ± 1.6% and the IC50 is more than 40 µM.

(Values after paper PMC9960553, ““Dual Anta-Inhibitors” of the A2A Adenosine Receptor and Casein Kinase CK1delta: Synthesis, Biological Evaluation, and Molecular Modeling Studies” (Pharmaceuticals, 2023).)
